PubChem BioAssay AID179 (DTP/NCI, 2004)
The source made the active and inactive calls.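 How the source made its calls: active means compounds giving half or more protection of infected cells from virus-caused growth loss, again on retest; inactive means the rest.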 Where a SMILES comes first, the peptide text is derived from it. [ ]: non-standard residue; d: D form. The star is where a group is joined. ξ: configuration not given here. ξW = NC(Cc1c[nH]c2ccccc12)C(=O)O; X18 = O=C(O)[C@H]1CCC[C@H]1N*; ξF = NC(Cc1ccccc1)C(=O)O; Boc = CC(C)(C)OC(=O)*; OSu = O=C1CCC(=O)N1O*; ξK = NCCCCC(N)C(=O)O; ξT = CC(O)C(N)C(=O)O; tBu = CC(C)(C)*

Test system: CEM cells HIV-1 protection, formazan growth assay
Assay: NCI AIDS Antiviral Assay
Conditions: for IC50: measured here: growth of uninfected CEM cells
Procedure, shortened: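 Protection of CEM cells against HIV-1 measured as cell growth via soluble formazan read-out, with five concentrations tested on both infected and uninfected cells; failure to protect may reflect toxicity.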

| Compound | outcome | EC50 | IC50 |
| --- | --- | --- | --- |
| N=C1C(=N)c2ccccc2-c2ccccc21.[Cl-].[Rh+3].c1cnc2c(c1)ccc1cccnc12.c1cnc2c(c1)ccc1cccnc12 | inactive | – | – |
| CC(C)[Si](OCC1CC(C#N)OC(C)(C)O1)(C(C)C)C(C)C (centres undefined) | – | > 200 µM | 107 µM |
| COC(=O)[C@@H]1[C@@H]2NC(=S)N[C@@]1(C)Oc1ccccc12 | inactive | – | – |
| CCOC(=O)C(Cc1ccc2c(c1)CCC2)Cc1ccc2c(c1)CCC2 | – | > 200 µM | 1.62 µM |
| CCN(CC)Cc1cc2[nH]c3c4ccc(Cl)cc4ncc3c2cc1OC (tested in a mixture with another compound) | – | > 100 µM | 0.457 µM |
| Cc1cc2ccccc2n1CC(=O)N1CCCC1 | – | > 200 µM | > 200 µM |
| CC1CC[C@]2(C(=O)O)CCC3(C)C(=CC(=O)C4[C@@]5(C)CCC(=O)C(C)(C)C5CC[C@]43C)[C@@H]2[C@H]1C (some centres undefined) | inactive | – | – |
| N#Cc1nc(CCCN2C(=O)c3ccccc3C2=O)oc1N | – | > 200 µM | > 200 µM |
| O=C1CCCC/C1=C(\Br)I | inactive | – | – |
| CC(OC(C)(C)C)C(NC(=O)C(CCCCNC(=O)OC(C)(C)C)NC(=O)C(Cc1c[nH]c2ccccc12)NC(=O)C(N)Cc1ccccc1)C(=O)NC(Cc1ccccc1)C(=O)N[C@@H]1CCC[C@@H]1C(=O)O (some centres undefined) (H-[ξF][ξW][ξK](Boc)[ξT](tBu)[ξF]-X18) | inactive | – | – |
| CC1(C)C(c2ccccc2)=[N+]([O-])C(C)(C)N1O | – | > 200 µM | 170 µM |
| Cc1cc2c(c(C(=O)O)c1C)-c1cccc(F)c1C2=O | inactive | – | – |
| O=[N+]([O-])c1ccc(Cc2ccccc2)cc1 | – | > 63.1 µM | > 63.1 µM |
| CC1CCN(C2=CC(=O)C(=O)c3cccnc32)CC1 | inactive | – | – |
| CCOC(=O)CC1C(C(=O)OCC)=Cn2c([nH]c3cccc4cccc2c43)=C1C(=O)OCC (centres undefined) | – | > 200 µM | 30.9 µM |
| C[C@]12CC[C@@H]3c4cc(OCC(F)(F)F)c(O)cc4C(=O)C[C@H]3[C@@H]1CC[C@@H]2O | – | > 200 µM | 3.02 µM |
| Nc1ccc([C@H]2C(=O)N[C@H]3CCC[C@H]32)cc1 | – | > 417 µM | > 417 µM |
| O=C1OCC(C(=O)c2cccc(O)c2)C1=O (centres undefined) | inactive | – | – |
| C[C@@H]1[C@@H](C)C(c2ccccc2)O[Si]1(C(C)(C)C)C(C)(C)C (some centres undefined) | – | > 100 µM | 56.2 µM |
| CC1=NN(C(=O)c2ccc([N+](=O)[O-])cc2)C(=O)C1N=Nc1ccccc1C(=O)O (centres undefined) | inactive | – | – |
| CCC[CH2][Sn]([CH2]CCC)([O]C(=O)c1ccc(OC)c(OC)c1OC)[O][Sn]([CH2]CCC)([CH2]CCC)[O]C(=O)c1ccc(OC)c(OC)c1OC | – | > 5.75 µM | 0.871 µM |
| NC1=NN(c2ccccc2)C(=O)/C1=C\n1c(=S)[nH]c2ccccc21 | – | > 200 µM | > 200 µM |
| CCOC(=O)C(C)c1nc2cc(N3CCOCC3)c(F)cc2[nH]c1=O (centres undefined) | – | > 200 µM | > 200 µM |

| Compound | outcome | EC50 | IC50 |
| --- | --- | --- | --- |
| O=C1NC2(CCNCC2)Oc2ccccc21 | – | > 200 µM | > 200 µM |
| O=C(CC(=O)N1N=C(c2ccccc2)C(N=Nc2ccccc2Cl)C1=O)Nc1ccccc1Cl (centres undefined) | – | > 52.5 µM | 29.5 µM |
| O=C1OC(OCC#CCOC2OC(=O)C(Cl)=C2Cl)C(Cl)=C1Cl (centres undefined) | – | > 200 µM | 1.7 µM |
| C/C(CC(=O)NCCc1ccccc1)=N\NS(=O)(=O)c1ccc(C)cc1 | – | > 347 µM | 339 µM |
| O=C1CCC2c3ccccc3NCN12 (centres undefined) | inactive | – | – |
| O=P1(O)c2ccccc2Oc2ccccc21 | – | > 200 µM | > 200 µM |
| O=[N+]([O-])c1ccc(S(=O)(=O)N/N=C/c2ccccc2[N+](=O)[O-])cc1 | – | > 102 µM | > 102 µM |
| COc1cc2c(nn1)CCCC2 | inactive | – | – |
| O=c1oc(-c2ccccc2)nnc1-c1ccccc1 | – | > 178 µM | > 178 µM |
| CC(C)N(C(=O)c1ccc([N+](=O)[O-])cc1)C(C)C | – | > 200 µM | > 200 µM |
| O=C1/C(=C2\Sc3c(ccc(Cl)c3Cl)C2=O)Sc2c1ccc(Cl)c2Cl | – | > 200 µM | > 200 µM |
| O=c1[nH]c(Nc2cc(Cl)cc(Cl)c2)nc2nc[nH]c12 | – | > 200 µM | > 200 µM |
| Cc1ccc(Cl)cc1N=NC(=O)NNc1cc(Cl)ccc1C | – | > 200 µM | 25.1 µM |
| O=C1C(=O)N(c2ccc(Cl)c(Cl)c2)C(=O)C(=O)C1c1nc2ccccc2o1 | inactive | – | – |
| O=C1NC(=O)C2(CC2)N1 | – | > 200 µM | > 200 µM |
| Nc1c(Br)cc2c(c1Br)Cc1cc(N=Nc3ccccc3)ccc1-2 | – | 51.3 µM | 102 µM |
| CC(NC(=O)C(Cc1ccc(OC(=O)c2ccccc2)cc1)NC(=O)OC(C)(C)C)C(=O)NCC(=O)NC(Cc1ccccc1)NC(=O)OCc1ccccc1 (centres undefined) | – | > 200 µM | 110 µM |
| CCn1c2ccccc2c2ccc(C3C(C(=O)OC)=C(C)NC(C)=C3C(=O)OC)cc21 | inactive | – | – |
| CCOC(=O)CCC1(C(=O)OCC)CCCC1=O (centres undefined) | – | > 263 µM | > 263 µM |
| CCN(CC)C(=O)Cc1[nH][nH]c(=O)c1C(=O)N(CC)CC | – | > 851 µM | > 851 µM |
| O=P(O)(O)CN1CCNCCN(CP(=O)(O)O)CCN(CP(=O)(O)O)CCNCC1 | – | > 100 µM | 64.6 µM |
| Cc1cccc(Nc2cn(CCOc3ccccc3)c(=O)n(CCOc3ccccc3)c2=O)c1 | – | > 200 µM | > 200 µM |
| CC(C)OP(=O)(CCCCCCCCC/C=C/c1ccc2c(c1)OCCOCCOCCOCCO2)OC(C)C | – | > 200 µM | 12.3 µM |

| Compound | outcome | EC50 | IC50 |
| --- | --- | --- | --- |
| C/C(C=O)=C\c1ccc(F)cc1 | – | > 219 µM | > 219 µM |
| N#CCc1c(F)c(F)c(F)c(F)c1F | – | > 200 µM | > 200 µM |
| Cc1cn([C@H]2C(CO)[C@@H](CO)C2(C)C)c(=O)[nH]c1=O (some centres undefined) | – | > 933 µM | > 933 µM |
| COC(=O)[C@@H]1CCCN1CCN1CCC[C@H]1C(=O)OC | – | > 200 µM | > 200 µM |
| Clc1cc2ncn(C3CCCCO3)c2cc1Cl (centres undefined) | – | > 200 µM | 45.7 µM |
| N#CC(C#N)=Cc1ccc(F)cc1 | – | > 79.4 µM | > 79.4 µM |
| COc1cccc(OC)c1SSCCN | – | > 200 µM | 24.5 µM |
| C=CCCCCCCCCC(=O)NC(C)COC (centres undefined) | – | > 200 µM | 107 µM |
| CNC(C#N)c1ccc(OC)cc1 (centres undefined) | – | > 200 µM | 105 µM |
| Cc1ccc(S(=O)(=O)N/N=c2\c(C)c(C3=NS(=O)(=O)c4cc(S(N)(=O)=O)c(Cl)cc4N3)oc3c(Cl)cc(Cl)cc23)cc1 | – | > 69.2 µM | > 69.2 µM |
| Cc1nc2ccc(Cl)cc2c(Cl)c1CCCl | – | > 200 µM | 10.7 µM |
| COc1cc(/C=C(\C#N)c2ccc(Cl)cc2)ccc1OCc1ccccc1 | – | > 200 µM | > 200 µM |
| COC(=O)[C@@H]1N2C(=S)N(c3ccccc3)C(=O)[C@H]2SC1(C)C | – | > 200 µM | > 200 µM |
| CN(C)CCCNC(=O)c1c(O)c2ccccc2[nH]c1=O | – | > 200 µM | > 200 µM |
| COc1ccc(/C=C2\C(=O)NC(=O)c3ccccc32)cc1OC | – | > 60.3 µM | 31.6 µM |
| O=C(NNC(=S)NC1CC(c2ccccc2)Oc2ccccc21)c1ccccc1 (centres undefined) | inactive | – | – |
| COc1ccc2c(c1)[nH]c1c(C)c3ccncc3c(C)c12 | – | > 200 µM | 0.112 µM |
| O=C(/C=C/c1ccsc1)c1ccc(Cl)cc1 | – | > 200 µM | 3.31 µM |
| C[N+]1(CCCl)CCc2ccc([N+](=O)[O-])cc2C1 (centres undefined) | – | > 200 µM | > 200 µM |
| NNC(=O)N/N=C1\CN(c2ccc(Cl)cc2Cl)C(=O)C(=O)C1c1nc2ccccc2o1 (centres undefined) | inactive | – | – |
| S=c1[nH][nH]c(=S)c2[nH]cnc12 | – | > 141 µM | > 141 µM |
| Cc1oc2nc(N(C)C)n3nnnc3c2c1C | inactive | – | – |
| CC(CO)(CO)N1C(=O)C2C3C=CC(C3)C2C1=O (centres undefined) | – | > 200 µM | > 200 µM |

| Compound | outcome | EC50 | IC50 |
| --- | --- | --- | --- |
| CC(C)(C)OC(=O)NC(Cc1ccc(O)cc1)C(=O)NC(CCCCN)C(=O)NC(Cc1ccc(O)cc1)C(=O)NC(CCCCN)C(=O)ON1C(=O)CCC1=O (centres undefined) (Boc-YKYK-OSu; configuration not given here) | – | > 100 µM | > 100 µM |
| CC(=O)Oc1cc2c(c(=O)n1C)C(C)N(C)C2=O (centres undefined) | – | 53.7 µM | 309 µM |
| COc1ccc(C/C(=N/O)C(=O)NCCc2cc(Br)c(OCCCN(C)C)c(Br)c2)cc1Br | inactive | – | – |
| O=S(Cc1cnc2ccccc2c1)c1nc2ccccc2nc1-c1cccs1 (centres undefined) | – | > 6.76 µM | > 6.76 µM |
| CCOCC(CN(CC)CC)N(CC)CC(=O)Nc1c(C)cccc1C (centres undefined) | – | > 200 µM | 4.17 µM |
| O=C1C(c2cnc3ccccc3n2)=C(O)c2ccccc21 | – | > 2.63 µM | > 2.63 µM |
| O/N=C/c1ncccc1C1OCCO1 | – | > 257 µM | 141 µM |
| Cc1cc(C)c(C#N)c(SC(=S)NC(=O)c2ccccc2)n1 | – | 158 µM | > 200 µM |
| O=C(O)c1ccccc1SSC(=S)N1CCOCC1 | – | > 0.02 µM | 0.000759 µM |
| COc1c(Cl)cc(C(=CCCCCN[C@H]2CC[C@@]3(C)[C@@H](CC[C@@H]4[C@@H]3CC[C@]3(C)[C@@H](C(C)CCCC(C)C)CC[C@@H]43)C2)c2cc(Cl)c(OC)c(C(=O)O)c2)cc1C(=O)O (some centres undefined) | – | > 200 µM | > 200 µM |
| O=C1Nc2ccccc2C12CCNC2Cc1ccccc1 (centres undefined) | – | > 794 µM | 263 µM |
| O=C(O)c1ccccc1C(=O)c1ccc(F)cc1 | inactive | – | – |
| CCC(=O)C(CCN1CCC(n2c(=O)[nH]c3ccccc32)CC1)(c1ccccc1)c1ccccc1 | – | > 200 µM | 19.1 µM |
| CCOC(=O)C1=C(O)CC(=O)N=C1N1CCCC1 | – | > 200 µM | > 200 µM |
| CCC[CH2][Sn]([CH2]CCC)([CH2]CCC)[CH2]S(=O)(=O)O | inactive | – | – |
| O=c1ccnc(Nc2ccc[nH]c2=S)[nH]1 | – | > 589 µM | 282 µM |
| COc1ccc(C2Nc3ccccc3NC3CC(C)(C)CC(=O)C32)cc1 (centres undefined) | – | > 257 µM | 178 µM |
| CN(C)CCCNc1cc[n+](C)c2cccc([N+](=O)[O-])c12 | – | > 200 µM | 10.5 µM |
| CC(Nc1ccc(Cl)c(Cl)c1)c1ccncc1 (centres undefined) | – | > 200 µM | 28.8 µM |
| COC1=C(C)C(=O)C2=C(C1=O)C(CO)N1C(C#N)C3CC4C(C1C2N1CCOC41)N3C (centres undefined) | – | > 1.17 µM | 0.00575 µM |
